The source of these data is patent publication US20130252924A1, “Compounds and Methods for Treating Pain” (AKRON MOLECULES GMBH, priority 2010, published 2013).

Counter-ions that a name gives are not always drawn.

Broadly, the Kd is the free concentration of one partner at which half of the binding sites on the other are occupied at equilibrium, for simple one-to-one binding. Broadly, the IC50 is the concentration that gives 50% inhibition. Lower therefore signals higher potency.

The target in one experiment is T1, FRK (Homo sapiens, UniProt P42685).
T1 construct: either the full length protein or with a kinase construct that spans the catalytic domain
T1 sequence (P42685 whole entry, the tested form may be a part): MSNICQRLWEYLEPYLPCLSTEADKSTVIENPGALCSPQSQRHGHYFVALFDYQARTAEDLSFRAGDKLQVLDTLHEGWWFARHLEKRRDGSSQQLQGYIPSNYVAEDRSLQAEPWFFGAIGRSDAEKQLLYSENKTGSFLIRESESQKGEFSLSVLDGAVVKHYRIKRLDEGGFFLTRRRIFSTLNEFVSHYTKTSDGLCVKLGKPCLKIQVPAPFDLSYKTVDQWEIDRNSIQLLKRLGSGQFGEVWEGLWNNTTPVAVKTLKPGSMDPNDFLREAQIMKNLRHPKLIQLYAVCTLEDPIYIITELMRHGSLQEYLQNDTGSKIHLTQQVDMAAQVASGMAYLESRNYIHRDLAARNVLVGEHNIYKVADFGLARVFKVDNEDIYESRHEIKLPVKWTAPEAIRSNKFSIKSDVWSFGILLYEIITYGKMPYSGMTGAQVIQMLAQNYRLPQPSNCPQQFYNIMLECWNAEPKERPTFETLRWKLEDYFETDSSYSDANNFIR
Briefly: Binding affinity (Kd), KinomeScan kinase binding assay. The settings on record: FRK inhibitor. The text has this:
The assay can be performed with either the full length protein or with a kinase construct that spans the catalytic domain.
The compound `CCOc1cc2ncc(C#N)c(Nc3ccc(F)c(Cl)c3)c2cc1NC(=O)/C=C/CN(C)C` [Pelitinib] returned a Kd of 190 nM.

For the next experiment, the system named is rats with peripheral mononeuropathy induced by loose ligation of the sciatic nerve.
Assay: not given
The settings on record: background statement; cited from earlier work.
Take `CC(C)C[C@H](CN)CC(=O)O` [Pregabalin]: the “ameliorating symptoms of pain in the CCl model” value is listed as “effective at ameliorating symptoms of pain”.

Another experiment relates to rats with inflammatory pain induced by injection of an adjuvant (CFA).
Assay: not given
As to conditions: background statement on the positive control; cited from earlier work.
Consider `COc1ccc2c(c1)c(CC(=O)O)c(C)n2C(=O)c1ccc(Cl)cc1` [indomethacin], for which the “efficacy in the CFA model” value is given as “demonstrated efficacy”.

The target in another experiment is T2, human PDE4D (Homo sapiens, UniProt Q08499).
T2 construct: The cloning of catalytic domains of human PDE4D as well as the expression and purification of the PDE catalytic domains; made in house
T2 sequence (Q08499 386-715 limits assumed): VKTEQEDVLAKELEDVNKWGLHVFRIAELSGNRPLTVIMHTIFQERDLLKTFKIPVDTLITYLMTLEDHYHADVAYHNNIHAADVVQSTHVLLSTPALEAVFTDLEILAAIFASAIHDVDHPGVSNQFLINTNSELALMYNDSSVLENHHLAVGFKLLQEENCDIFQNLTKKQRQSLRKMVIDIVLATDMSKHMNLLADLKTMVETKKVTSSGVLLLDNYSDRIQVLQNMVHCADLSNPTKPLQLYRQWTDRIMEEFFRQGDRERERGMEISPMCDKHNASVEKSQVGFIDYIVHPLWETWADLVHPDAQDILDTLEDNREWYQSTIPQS
As to the kind of experiment: Measurement of PDE4D activity and determination of IC50 (scintillation bead assay, 3H-cAMP). The settings on record: PDE4D inhibitor. It counts as biochemical. How it is done: The half maximal inhibitory concentration (IC50) is a measure of the effectiveness of a compound in inhibiting biological or biochemical function. Concentration-response plots are used to determine the effects of an inhibitor on an enzymatic reaction.
Measurement of phosphodiesterase activity takes advantage of the selective binding of 5-AMP or 5-GMP (and not cAMP or cGMP) to yttrium silicate beads with embedded scintillant. 0.1-1 nM PDE was incubated with 50 nM 3H-cAMP or 70 nM 3H-cGMP (Amersham, 5-60 Ci/mmol) in 50 mM Tris (pH 7.5), 8.3 mM MgCl2, 1.7 mM EGTA, and 0.01% BSA at 30 C for 30 min in 384-well assay plates. The assay was terminated by adding one-third volume of 5 mg/ml yttrium silicate beads in 18 mM ZnAcetate/ZnSO4 solution (3:1). A minimum of 30 min after mixing and centrifuging the reaction, hydrolysis was quantified by reading in a scintillation counter (Trilux, […] Wallac).
Turning to `COc1ccc([C@H](Cc2ccncc2)c2ccccc2)cc1OC1CCCC1` [CDP-840, 4-[(2R)-2-[3-(Cyclopentyloxy)-4-methoxyphenyl]-2-phenylethyl]-pyridine hydrochloride], the IC50 came out at 2.1 nM.
Take `CCNc1ncn(Cc2ccc(OC)c(OC3CCCC3)c2)c2nc(C(C)C)nc1-2` [V11294, -[(3-cyclopentyloxy-4-methoxyphenyl)methyl]-N-ethyl-8-propan-2-ylpurin-6-amine:]: half-maximal inhibition (IC50) required 200 nM.
Same read-out and setting: to `CS(=O)(=O)Nc1ccc2oc3c(OC(F)F)ccc(C(=O)Nc4c(Cl)cncc4Cl)c3c2c1` [oglemilast] belongs 166 nM.
As for `COc1ccc(/C(C)=N/OC(N)=O)cc1OC1CCCC1` [Filaminast], the 50% inhibitory concentration (IC50) was determined as 1000 nM.
Still for that read-out and setting: to `O=C(Nc1c(Cl)cncc1Cl)C(=O)c1cn(Cc2ccc(F)cc2)c2ncccc12` [Ronomilast] belongs 3.5 nM; to `CCCOc1cc([C@]2(C)CNC(=O)O2)ccc1OC` [Daxalipram], 1100 nM.
On the same count and under the same terms, to `CCOc1ccc(-c2nc(-c3cccc(C(=O)O)n3)cs2)cc1OCC` [Tetomilast, 6-[2-(3,4-diethoxyphenyl)-1,3-thiazol-4-yl]pyridine-2-carboxylic acid] belongs 70 nM; to `Cc1c[n+]([O-])ccc1CC(c1ccc(C(O)(C(F)(F)F)C(F)(F)F)cc1)c1ccc(OC(F)F)c(OC(F)F)c1` [L-826,141, 4-[2-[3,4-Bis(difluoromethoxy)phenyl]-2-[4-[2,2,2-trifluoro-1-hydroxy-1-(trifluoro-methyl)ethyl]phenyl]ethyl]-3-methylpyridine N-oxide], 2.4 nM.
The same measure, in the same setting: to `O=C(Nc1c(Cl)c[n+]([O-])cc1Cl)c1ccc(OC(F)F)c2oc3ccncc3c12` [Revamilast] belongs 2.7 nM; to Tolafentrine, 30 nM; to `CCC1C(C)=NN=C(c2ccc(OC)c(OC)c2)c2cc(OC)c(OC)cc21` (centres unmarked) [Tofisopam, 1-(3,4-dimethoxyphenyl)-5-ethyl-7,8-dimethoxy-4-methyl-5H-2,3-benzodiazepine], 900 nM.
